We go through three compounds from PMC9223764, “In Vitro Selection and Characterization of HIV-1 Variants with Increased Resistance to LP-40, Enfuvirtide-Based Lipopeptide Inhibitor” (International Journal of Molecular Sciences, 2022).

Assay type in all cases: cell-based
For test [1], the system named is HIV-1 NL4-3 pseudovirus (WT). Particulars: Table 3; for Fold change in IC50: WT NL4-3 reference; for IC50: WT NL4-3, TZM-bl cells, 48 h, luciferase, means, triplicate, repeated three times. The method, then:
(§1) The infectivity of HIV Env mutants and the inhibitory activities of membrane fusion inhibitors on mutants in TZM-bl cells were measured using a single-cycle infection assay as described previously. Briefly, the HIV pseudovirus was packed using an Env-coding plasmid, and pSG3ΔEnv was co-transfected into HEK293T cells. pSG3ΔEnv encodes an Env-defective, luciferase-expressing HIV-1 genome. After the pseudoviruses were harvested and filtrated, the amount of pseudoviruses was fixed via P24 antigen, and their infectivity was determined in TZM-bl cells. In order to measure the inhibitory activities of the inhibitors, inhibitors diluted serially 3-fold were mixed with an equal volume of pseudoviruses, and then 100 µL 1 × 10^5/mL TZM-bl cells were added to the mixture and incubated at 37 °C with 5% CO2 for 48 h. After that, TZM-bl cells were lysed using reporter lysis buffer, and IC50 values were calculated according to luciferase activity measured by luciferase assay reagents and a luminescence counter (Promega, Madison, WI, USA).

Test [2] has as its system HIV-1 NL4-3 gp41 I37T pseudovirus. To be noted: Table 3; for Fold change in IC50: I37T relative to WT NL4-3; for IC50: I37T, TZM-bl cells, 48 h, luciferase, means, triplicate, repeated three times. On the procedure:
(§2) Viral RNA was extracted from the supernatant, and, after reverse transcription, the cDNA was amplified using PCR. These amplified DNA were connected to the T-Easy vector and transformed to Trans 2-Blue Chemically Competent Cells. These sequences were determined via sequencing. The expression plasmids, which contained different HIV-1NL4-3 Env mutants, were constructed using DNA assembly (NEBuilder® HiFi DNA Assembly Master Mix). In brief, two primers were used to amplify Env, and the other two primers were used to amplify the vector fragment. The products of PCR were purified with a 20–25 bp overlap in the terminal of Env and the vector fragment Env and the vector fragment were added to the DNA assembly master mix at […] for 15 min and then transformed to Trans 2-Blue Chemically Competent Cells. Additionally, a single-point mutation was generated using double-stranded DNA templates and a selection of mutants with a restriction enzyme (DpnI) as described previously.
as §1

Test [3] relates to HIV-1 NL4-3 gp41 I69V pseudovirus. To be noted: Table 3; for Fold change in IC50: I69V relative to WT NL4-3; for IC50: I69V, TZM-bl cells, 48 h, luciferase, means, triplicate, repeated three times. On the procedure: as §2, §1
The subject of test [4] is HIV-1 NL4-3 gp41 L33S pseudovirus. To be noted: Table 3; for Fold change in IC50: L33S relative to WT NL4-3; for IC50: L33S, TZM-bl cells, 48 h, luciferase, means, triplicate, repeated three times. The method, then: as §2, §1
The test system of test [5] is HIV-1 NL4-3 gp41 L33S/I37T pseudovirus. To be noted: Table 3; for Fold change in IC50: L33S/I37T relative to WT NL4-3; for IC50: L33S/I37T, TZM-bl cells, 48 h, luciferase, means, triplicate, repeated three times. The method, then: (§3) We selected LP-40-induced drug resistance typical point mutations and combination mutation pseudoviruses to evaluate the current representative membrane fusion inhibitors.
as §1

The subject of test [6] is HIV-1 NL4-3 gp41 L33S/V38A/N42T pseudovirus. To be noted: Table 3; for Fold change in IC50: L33S/V38A/N42T relative to WT NL4-3; for IC50: L33S/V38A/N42T, TZM-bl cells, 48 h, luciferase, means, triplicate, repeated three times. The method, then: as §3, §1
In test [7] the test system is HIV-1 NL4-3 gp41 NDQEEDYN pseudovirus. To be noted: Table 3; for Fold change in IC50: NDQEEDYN relative to WT NL4-3; for IC50: NDQEEDYN (E109N, N113D, E119Q, D121E, N125E, S129D, H132Y, S133N), TZM-bl cells, 48 h, luciferase, means, triplicate, repeated three times. On the procedure:
as §3, §1

The subject of test [8] is HIV-1 NL4-3 gp41 NDQEEDYN/L33S/I37T pseudovirus. Particulars: Table 3; for Fold change in IC50: NDQEEDYN/L33S/I37T relative to WT NL4-3; for IC50: NDQEEDYN/L33S/I37T, TZM-bl cells, 48 h, luciferase, means, triplicate, repeated three times. On the procedure:
as §3, §1

Test [9] relates to HIV-1 NL4-3 gp41 NDQEEDYN/L33S/V38A/N42T pseudovirus. To be noted: Table 3; for Fold change in IC50: NDQEEDYN/L33S/V38A/N42T relative to WT NL4-3; for IC50: NDQEEDYN/L33S/V38A/N42T, TZM-bl cells, 48 h, luciferase, means, triplicate, repeated three times. The method, then:
as §3, §1

The test system of test [10] is HIV-1 NL4-3 gp41 V38A/N42T pseudovirus. Particulars: Table 3; for Fold change in IC50: V38A/N42T relative to WT NL4-3; for IC50: V38A/N42T, TZM-bl cells, 48 h, luciferase, means, triplicate, repeated three times. On the procedure: as §3, §1

As usually defined, the IC50 is the concentration that inhibits the measured activity by half.

SMILES strings stand for the structures. Where a SMILES comes first, the peptide text is derived from it. The star is where a group is joined. Palmitoyl = CCCCCCCCCCCCCCCC(=O)*

As to `CCCCCCCCCCCCCCCC(=O)NCCCC[C@H](NC(=O)[C@H](CC(C)C)NC(=O)[C@H](CC(C)C)NC(=O)[C@H](CCC(=O)O)NC(=O)[C@H](CCC(=O)O)NC(=O)[C@@H](NC(=O)[C@H](CCCCN)NC(=O)[C@H](CCCCN)NC(=O)[C@H](CCC(=O)O)NC(=O)[C@H](CC(C)C)NC(=O)[C@H](CCC(=O)O)NC(=O)[C@H](CCC(=O)O)NC(=O)[C@@H](NC(=O)[C@H](CCCCN)NC(=O)[C@H](CCCCN)NC(=O)[C@H](CCC(=O)O)NC(=O)[C@H](Cc1c[nH]c2ccccc12)NC(=O)[C@H](CCC(=O)O)NC(=O)[C@H](CCC(=O)O)NC(=O)[C@H](Cc1c[nH]c2ccccc12)NC(=O)[C@@H](NC(=O)[C@H](CCSC)NC(=O)[C@H](CCC(=O)O)NC(C)=O)[C@@H](C)O)C(C)C)[C@@H](C)CC)C(N)=O` [LP-19] (Ac-EMTWEEWEKKVEELEKKIEELLK(Palmitoyl)-NH2), the “Fold change in IC50” value worked out at 1.00 fold in [1]; 1.62 fold in test [2]; 1.00 fold in [3]; 1.61 fold in [4]; 1.25 fold in test [5]; 0.56 fold in [6]. For the same compound, the “Fold change in IC50” value in test [7] came out at 1.68 fold; in [8], 3.04 fold; in test [9], 1.48 fold; in [10], 0.66 fold.

With `CC[C@H](C)[C@H](NC(=O)[C@H](CCC(=O)O)NC(=O)[C@H](CCCNC(=N)N)NC(=O)[C@H](CCC(=O)O)NC(=O)[C@H](Cc1c[nH]c2ccccc12)NC(=O)[C@@H](NC(=O)[C@H](CCC(=O)O)NC(=O)[C@H](Cc1c[nH]c2ccccc12)NC(=O)[C@H](CO)NC(C)=O)[C@@H](C)O)C(=O)N[C@@H](CCC(=O)O)C(=O)N[C@@H](CC(N)=O)C(=O)N[C@@H](Cc1ccc(O)cc1)C(=O)N[C@H](C(=O)N[C@@H](CCCNC(=N)N)C(=O)N[C@@H](CCC(N)=O)C(=O)N[C@H](C(=O)N[C@@H](Cc1ccc(O)cc1)C(=O)N[C@@H](CCCNC(=N)N)C(=O)N[C@H](C(=O)N[C@@H](CC(C)C)C(=O)N[C@@H](CCC(=O)O)C(=O)N[C@@H](CCC(=O)O)C(=O)N[C@@H](CO)C(=O)N[C@@H](CCC(N)=O)C(=O)N[C@@H](CCC(=O)O)C(=O)N[C@@H](CCC(N)=O)C(=O)N[C@@H](CCC(N)=O)C(=O)N[C@@H](CC(=O)O)C(=O)N[C@@H](CCCNC(=N)N)C(=O)N[C@@H](CC(N)=O)C(=O)N[C@@H](CCC(=O)O)C(=O)N[C@@H](CCCNC(=N)N)C(=O)N[C@@H](CC(=O)O)C(=O)N[C@@H](CC(C)C)C(=O)N[C@@H](CC(C)C)C(=O)N[C@@H](CCC(=O)O)C(N)=O)[C@@H](C)CC)[C@@H](C)CC)[C@@H](C)O` [SFT] (Ac-SWETWEREIENYTRQIYRILEESQEQQDRNERDLLE-NH2), the IC50 in [1] turned out to be 1.56 nM; in [2], 11.2 nM; in test [3], 1.67 nM; in [4], 4.67 nM; in test [5], 23 nM; in test [6], 260 nM. Also, the IC50 in test [7] is 8.03 nM; in test [8], 110 nM; in test [9], 739 nM; in test [10], 116 nM. Moreover, the “Fold change in IC50” value in [1] amounted to 1.00 fold; in [2], 7.21 fold; in test [3], 1.07 fold; in [4], 3.00 fold; in [5], 14.72 fold; in test [6], 166.68 fold. Further, the “Fold change in IC50” value in test [7] was determined as 5.15 fold; in [8], 70.71 fold; in test [9], 473.54 fold; in test [10] it was 74.48 fold.

Turning to `CC[C@H](C)[C@H](NC(=O)[C@H](CCC(N)=O)NC(=O)[C@H](C)NC(=O)[C@H](CCC(N)=O)NC(=O)[C@H](CCC(=O)O)NC(=O)[C@H](CC(C)C)NC(=O)[C@H](CC(C)C)NC(=O)[C@H](C)NC(=O)[C@@H](NC(=O)[C@@H](NC(=O)[C@H](CCCCN)NC(=O)[C@H](CCC(N)=O)NC(=O)[C@H](CCC(=O)O)NC(=O)[C@H](Cc1c[nH]c2ccccc12)NC(=O)[C@H](CCC(=O)O)NC(=O)[C@H](CCC(N)=O)NC(=O)[C@H](Cc1c[nH]c2ccccc12)NC(C)=O)[C@@H](C)CC)[C@@H](C)O)C(=O)N[C@@H](CCC(N)=O)C(=O)N[C@@H](CCC(N)=O)C(=O)N[C@@H](CCC(=O)O)C(=O)N[C@@H](CCCCN)C(=O)N[C@@H](CC(N)=O)C(=O)N[C@@H](CCC(=O)O)C(=O)N[C@@H](Cc1ccc(O)cc1)C(=O)N[C@@H](CCC(=O)O)C(=O)N[C@@H](CC(C)C)C(=O)N[C@@H](CCC(N)=O)C(=O)N[C@@H](CCCCN)C(=O)N[C@@H](CC(C)C)C(=O)N[C@@H](CC(=O)O)C(=O)N[C@@H](CCCCN)C(=O)N[C@@H](Cc1c[nH]c2ccccc12)C(=O)N[C@@H](C)C(=O)N[C@@H](CO)C(=O)N[C@@H](CC(C)C)C(=O)N[C@@H](Cc1c[nH]c2ccccc12)C(=O)N[C@@H](CCC(=O)O)C(=O)N[C@@H](Cc1c[nH]c2ccccc12)C(=O)N[C@@H](Cc1ccccc1)C(N)=O` [T1249], the IC50 in [1] turned out to be 1.14 nM; in test [2], 1.38 nM; in test [3] it was 0.93 nM; in test [4], 13 nM; in test [5], 81.5 nM; in test [6] it was 259 nM. Moreover, the IC50 in test [7] came to 1.07 nM; in test [8] it was 166 nM; in [9], 343 nM; in [10], 27.1 nM. For the same compound, the “Fold change in IC50” value amounted to 1.00 fold in test [1]; 1.21 fold in test [2]; 0.82 fold in test [3]; 11.41 fold in test [4]; 227.04 fold in test [6]; 0.94 fold in test [7]. Moreover, the “Fold change in IC50” value in test [8] is listed as 145.54 fold; in test [9] it was 301.12 fold; in [10], 23.77 fold.
